These results are taken from US9834549B2, “3,3-disubstituted-(8-aza-bicyclo[3.2.1]OCT-8-yl)-[5-(1H-pyrazol-4-yl)-thiophen-3-yl]-methanones as inhibitors of 11 (β)-HSD1” (The University Of Edinburgh, priority 2010, dated 2017).

Data set [1] in a line: Oral exposure and tissue distribution in rats. Conditions: rat, oral 10 mg/kg; for Cmax: male, Sprague Dawley, plasma, read-out: Plasma Cmax (maximum plasma concentration). The class given is in vivo, male Sprague Dawley rats. Here is the method:
The circulating plasma levels and tissue distribution of certain compounds were determined following oral administration of compound (10 mg/kg) to male Sprague Dawley rats. Rats (n=3 per group) were culled at 1, 4 and 6 hours post dosing and trunk blood and tissues (liver, adipose and brain) excised. Blood samples at 30 minutes and 2 hours post dosing were taken by tail nick from the 4 hour and 6 hour rats respectively.
Compound was triple extracted from plasma (prepared from blood by a high speed centrifugation step) spiked with 1 μg of a standard compound using ethyl acetate. Extracts were dried under nitrogen and re-suspended in 60% methanol/40% ammonium acetate (5 mM).
A known weight of tissue was homogenized in 3 volumes Krebs buffer. Compound was triple extracted with ethyl acetate from the supernatant of a low speed spin spiked with 1 μg of a standard compound. Extracts were dried under nitrogen and re-suspended in 60% methanol/40% ammonium acetate (5 mM).
Samples from plasma and tissue were analyzed by TSQ Quantum Discovery Tandem Mass Spectrometer and Surveyor Liquid Chromatogram (Thermo, Hemel-Hempstead, UK). 10 μL of each sample was injected in a mobile phase consisting of 60%:40% methanol:5 mM ammonium acetate at a flow rate of 0.5 mL/minute. The column used was a BDS hypersil, C18, 50×2.1 mm with a 5 μm particle size.
(§1) Each compound was tuned with a spray voltage of 3000 V and a capillary temperature of 300° C. and values for tube lens, CID and product ions were determined.
The peak area for each compound and for the internal standard was determined and the concentration of compound per gram of tissue or mL of plasma was calculated by comparison of the peak area ratio to a standard curve.

For data set [2], the target named is T1, human 11β-HSD1 (Homo sapiens, UniProt P28845).
T1 construct: stably transfected with a construct containing the full-length gene coding for the human 11β-HSD1 enzyme; expressed in transfected cells; host or cells: HEK293 (stably transfected, HEK293/11β-HSD1)
T1 sequence (P28845 whole entry): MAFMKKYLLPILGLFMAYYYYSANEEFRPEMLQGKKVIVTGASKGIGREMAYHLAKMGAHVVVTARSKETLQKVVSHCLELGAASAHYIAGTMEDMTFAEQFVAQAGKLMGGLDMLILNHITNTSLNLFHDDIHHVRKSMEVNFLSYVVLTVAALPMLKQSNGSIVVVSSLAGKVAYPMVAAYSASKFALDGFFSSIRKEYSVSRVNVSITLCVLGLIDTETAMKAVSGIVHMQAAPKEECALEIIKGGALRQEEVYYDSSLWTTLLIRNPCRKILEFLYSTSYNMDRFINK
In words: Cellular in vitro 11β-HSD1 enzyme inhibition assay (SPA, HEK293/11β-HSD1 cells). Type of data set: cell-based. Here is the method:
Compounds were assessed by a Scintillation Proximity Assay (SPA) performed according to the following protocol:
HEK293 cells were stably transfected with a construct containing the full-length gene coding for the human 11β-HSD1 enzyme to create HEK293/11β-HSD1 cells. Cells were routinely cultured in DMEM containing 10% calf foetal serum, 1% glutamine, and 1% penicillin and streptomycin. Prior to assay, cells were plated at 2×10^4 cells/well in 96-well poly-D-Lys coated flat-bottomed microplates and incubated in 5% CO2, 95% O2 at 37° C. for 24 hours. The media in each well was removed immediately before assay.
Compounds to be tested were dissolved in DMSO at 10 mM and serially diluted into water containing 10% DMSO. Diluted compounds at a volume of 10 μL were added to wells of a 96-well V-bottomed microplate. A solution of DMEM, 1% glutamine, 1% penicillin and streptomycin, and 22 nM tritiated cortisone was prepared and 90 μL added to each well of the assay plate. This solution (100 μL/well) was transferred to the plate containing the cells. The plate was then incubated in 5% CO2, 95% O2 at 37° C. for 2 hours.
Following this incubation, 50 μL of the assay solution was transferred to each well of a 96-well scintillation microplate. A mixture consisting of anti-mouse YSi SPA beads, pre-mixed with anti-cortisol antibody in assay buffer (50 mM Tris.HCl, pH 7.0; 300 mM NaCl; 1 mM EDTA, 5% glycerol) was prepared and 50 μL added to each well of the scintillation microplate. An adhesive strip was applied to the microplate and the plate gently shaken for at least 2 hours at room temperature, and then spun briefly on a low speed centrifuge. The plate was read on a scintillation counter suitable for 96-well microplates. For the calculation of percentage inhibition, a series of wells were added to the plate that represented the assay maximum and the assay minimum: one set that contained substrate without cells (minimum) and another set that contained substrate and cells without any compound (maximum).
The calculation of median inhibitory concentration (IC50) values for the compounds was performed using GraphPad Prism® software. Dose-response curves for each compound were plotted as fractional inhibition and data fitted to the four parameter logistic equation.

Data set [3] can be described thus: In vitro human liver microsomal stability assay. The class given is in vitro ADME. Conditions: human liver microsomes. Here is the method: To predict in vivo metabolism of compounds, the stability of compounds incubated with human liver microsomes in vitro was determined. Human liver microsome preparations were stored at −80° C. and thawed on ice prior to use. The thawed microsomes were diluted to a concentration of 2 mg/mL in 50 mM sodium phosphate, pH 7.4. Reference and test compounds were prepared as 10 mM stocks in 100% DMSO and diluted to 1 mM in acetonitrile before use. Each compound was tested in triplicate as follows:
4 μL of test or reference compound was added to a well of a 24-well microplate and 0.5 mL of 4 mM NADPH added. The plate was then transferred to a shaker for 10 minutes at room temperature. 30 μL of the compound/NADPH solution was transferred to the well of a 96-well microplate and incubated at 37° C. for 5 minutes. 30 μL of human liver microsomes (pre-incubated at 37° C. for 5 minutes) was added to the well containing the compound/NADPH solution and the plate incubated for the selected period of time (typically 0 or 30 minutes). The reaction was stopped by adding 60 μL of ice cold […] trichloroacetic acid. The plate was centrifuged at 1000 rpm for 5 minutes at room temperature and the supernatant transferred to the well of a new 96-well V-bottomed microplate for mass spectrometric analysis.
Samples were analyzed by TSQ Quantum Discovery Tandem Mass Spectrometer and Surveyor Liquid Chromatogram (Thermo, Hemel-Hempstead, UK). 10 μL of each sample was injected in a mobile phase consisting of 60%:40% methanol:5 mM ammonium acetate at a flow rate of 0.5 mL/minute. The column used was a BDS hypersil, C18, 50×2.1 mm with a 5 μm particle size.
as §1
The peak area for each compound was measured in triplicate for the 0 and 30 minute samples and the average of each was reported. The percentage remaining after 30 minutes was calculated as the average peak area of the sample after 30 minutes divided by the average peak area at 0 minutes. The RSD was 10% or lower for each compound.
(In general: Liver microsomes are a subcellular fraction often used to study metabolism.)

Data set [4] concerns the target T2, human 11β-HSD2 (Homo sapiens, UniProt P80365).
T2 construct: CHO cells stably transfected with the full-length gene coding for human 11β-HSD2 were used; expressed in transfected cells; host or cells: CHO (stably transfected)
T2 sequence (P80365 1-405): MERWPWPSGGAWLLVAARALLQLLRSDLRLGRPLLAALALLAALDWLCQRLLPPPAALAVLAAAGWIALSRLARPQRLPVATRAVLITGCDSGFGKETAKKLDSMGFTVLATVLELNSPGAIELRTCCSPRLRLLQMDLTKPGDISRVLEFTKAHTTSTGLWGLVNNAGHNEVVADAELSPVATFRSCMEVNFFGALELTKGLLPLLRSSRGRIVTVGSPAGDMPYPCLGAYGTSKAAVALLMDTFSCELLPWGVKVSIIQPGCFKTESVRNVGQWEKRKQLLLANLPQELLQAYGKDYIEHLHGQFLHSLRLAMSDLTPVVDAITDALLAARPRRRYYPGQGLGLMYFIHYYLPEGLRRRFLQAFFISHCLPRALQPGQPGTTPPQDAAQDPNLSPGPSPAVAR
Nature of the data set: Cellular in vitro 11β-HSD2 enzyme inhibition assay (CHO cells). The class given is cell-based. Conditions: CHO cells transfected with human 11β-HSD2. Here is the method: For measurement of inhibition of 11β-HSD2, CHO cells stably transfected with the full-length gene coding for human 11β-HSD2 were used. Assays were carried out in 96-well microplates containing 1×10^5 cells/well. Controls and compounds were plated as above, so that the final DMSO concentration in each well was 1%. To initiate the assay, 90 μL of a solution of HAMS F-12 medium containing 1% glutamine, 1% penicillin and streptomycin, and 22 nM tritiated cortisol was added to each well of the assay plate. The plate was then incubated in 5% CO2, 95% O2 at 37° C. for 16 hours.
The assay solutions were transferred to glass tubes and […] added to each tube. Each tube was vortexed thoroughly and the upper layer containing the tritiated steroid transferred to a fresh glass tube. The solvent was evaporated by placing the tubes in a heating block at 65° C. under a stream of nitrogen gas. 20 μL ethanol was added to each of the dried samples and vortexed briefly. Each sample was applied to a silica TLC plate and the plate dried. The plate was placed vertically in a glass tank containing 92% chloroform: 8% ethanol and the solvent allowed to rise up the plate. The plate was dried, placed in an imaging cassette, and overlayed with a tritium imaging plate for 1-2 days. The amount of enzyme inhibition in each sample was determined by measuring the intensity of the substrate and product spots using a phospho-imager. IC50 values for inhibitors were determined as described above for 11β-HSD1.

Where [5] appears, read: HEK293, potency groups, read-out: IC50 for 11β-HSD1 (HEK293).
The mark [6] stands for this setting: HEK293 cells transfected with human 11β-HSD1, first value in cell, read-out: IC50 for 11β-HSD1 (HEK293).
The mark [7] stands for this setting: HEK293 cells, value marked * in brackets, read-out: IC50 for 11β-HSD1 (HEK293), (*) average of at least two individual experiments.

Like-named read-outs stand apart in the source and are kept apart here.

Usually IC50 stands for the midpoint of a concentration-inhibition curve. Take `O=C(c1csc(-c2cn[nH]c2)c1)N1C2CCC1CC(O)(c1cscn1)C2` (stereo not shown) [XX-36]: in data set [1], the Cmax is above 1000 ng/mL and the “Liver Cmax (maximum liver concentration)” value is reported as “++ (3001-5000 ++)”. The IC50 in data set [2] (setting [5]) is at most 0.1 µM. The “% Parent Remaining at 30 min” value in data set [3] is “+++ (61-100% +++)”.

As for `O=C(c1csc(-c2cn[nH]c2)c1)N1C2CCC1CC(F)(c1cccnn1)C2` (stereo not shown) [XX-43], the IC50 in data set [2] (setting [5]) is at most 0.1 µM; in data set [2] (setting [6]) it was 0.047 µM; in data set [2] (setting [7]), 0.05 µM; in data set [4] it was above 10 µM. Also, the “% Parent Remaining at 30 min” value in data set [3] was “+++ (61-100% +++)”.

Consider `O=C(c1csc(-c2cn[nH]c2)c1)N1C2CCC1CC(O)(c1ccccn1)C2` (stereo not shown) [XX-01], for which the Cmax in data set [1] was above 1000 ng/mL. In addition, in data set [1], the “Liver Cmax (maximum liver concentration)” value is “++ (3001-5000 ++)”. Also, the IC50 in data set [2] (setting [5]) was at most 0.1 µM; in data set [2] (setting [6]) it was 0.021 µM; in data set [2] (setting [7]) it was 0.028 µM; in data set [4], above 10 µM. Moreover, in data set [3], the “% Parent Remaining at 30 min” value is reported as “+++ (61-100% +++)”.

Turning to `Cc1cccnc1C1(O)CC2CCC(C1)N2C(=O)c1csc(-c2cn[nH]c2)c1` (stereo not shown) [XX-07], the IC50 in data set [2] (setting [5]) was at most 0.1 µM; in data set [2] (setting [6]) it was 0.003 µM; in data set [4] it was above 10 µM.

Take `O=C(c1csc(-c2cn[nH]c2)c1)N1C2CCC1CC(O)(c1cnccn1)C2` (stereo not shown) [XX-24]: the Cmax in data set [1] is 501 to 1000 ng/mL. The “Liver Cmax (maximum liver concentration)” value in data set [1] is listed as “++ (3001-5000 ++)”. Further, the IC50 in data set [2] (setting [5]) was at most 0.1 µM; in data set [2] (setting [6]) it was 0.037 µM; in data set [4], above 10 µM.

`Cc1cccnc1C1(F)CC2CCC(C1)N2C(=O)c1csc(-c2cn[nH]c2)c1` (single isomer, unassigned) [XX-16, [3-Fluoro-3-(3-methyl-pyridin-2-yl)-8-aza-bicyclo[3.2.1]oct-8-yl]-[5-(1H-pyrazol-4-yl)-thiophen-3-yl]-methanone]: the IC50 was at most 0.1 µM in data set [2] (setting [5]), 0.009 µM in data set [2] (setting [6]) and above 10 µM in data set [4].

Consider `N#CC1(c2ccccn2)CC2CCC(C1)N2C(=O)c1csc(-c2cn[nH]c2)c1` (stereo not shown) [XX-18], for which the figures for the IC50 in data set [2] (setting [5]), in data set [2] (setting [6]) and in data set [4] were at most 0.1 µM, 0.015 µM and above 10 µM, respectively. The “% Parent Remaining at 30 min” value in data set [3] was “+++ (61-100% +++)”.

As for `O=C(c1csc(-c2cn[nH]c2)c1)N1C2CCC1CC(F)(c1ncccc1Cl)C2` (stereo not shown) [XX-13, [3-(3-Chloro-pyridin-2-yl)-3-fluoro-8-aza-bicyclo[3.2.1]oct-8-yl]-[5-(1H-pyrazol-4-yl)-thiophen-3-yl]-methanone], the IC50 was at most 0.1 µM in data set [2] (setting [5]), 0.031 µM in data set [2] (setting [6]) and above 10 µM in data set [4]. Besides, the “% Parent Remaining at 30 min” value in data set [3] is “++ (31-60% ++)”.

On to `O=C(c1csc(-c2cn[nH]c2)c1)N1CCC(O)(c2ncccc2Cl)CC1` [YY-02], for which, in data set [1], the Cmax was above 1000 ng/mL. Besides, the “Liver Cmax (maximum liver concentration)” value in data set [1] is “+++ (>5001 +++)”. For the same compound, the IC50 in data set [2] (setting [5]) is at most 0.1 µM; in data set [2] (setting [6]), 0.049 µM; in data set [2] (setting [7]), 0.041 µM; in data set [4] it was above 10 µM. In addition, the “% Parent Remaining at 30 min” value in data set [3] was “++ (31-60% ++)”.

For `O=C(c1csc(-c2cn[nH]c2)c1)N1CCC(O)(c2ccncc2Cl)CC1` [YY-06], the IC50 in data set [2] (setting [5]) was at most 0.1 µM; in data set [2] (setting [6]) it was 0.028 µM; in data set [4] it was above 10 µM. Moreover, the “% Parent Remaining at 30 min” value in data set [3] is given as “++ (31-60% ++)”.
